Test results from patent US20060074048A1, “Mixed esters of hyaluronic acid with retinoic and butyric acids” (priority 2002, published 2006).

Legend:
Type in all cases: cell-based, human
[1] = system: promyelo/monocytic cell line U937; test: Cell cycle perturbation by flow cytometry, U937; details: U937, 3 days; mixed ester 0.1 mg/ml, BA 0.2 mM, RA 10^−5 M
Procedure: The evaluation was performed by flow cytometry (panels a, b, c) after 6 days of continuous treatment with mixed ester at 0.1 or 1 mg/ml concentrations and was compared with the effect on cell growth determined by a colorimetric method (MTT), described by the curve -●-.
The effect on cell cycle and on cell proliferation has been assessed. The assessment has been performed by flow cytometry after 3 days of treatment with the mixed ester of the invention at 0.1 mg/ml concentration, or with butyric acid or retinoic acid at concentrations of 0.2 mM and 10^−5 M, respectively. Cell cycle perturbations induced by these compounds are related to the effect on cell proliferation (ordinate axis) exerted by identical concentrations of the drugs and expressed as percentage of the control (CTR) represented by cells cultured in medium alone. […] CTR: control. Panel a): (Go=45%; S=46%), panel b): (Go=44%; S=45%); panel c) (Go=43%; S=45%); panel d): (Go=72%; S=22%); panel e) (Go=41%; S=46%), panel f): (Go=94%; S=2%).
To evaluate cell cycle alterations, cells were re-suspended in a solution containing only propidium iodide, Rnase and Nonidet P40 and the fluorescence was measured using a FACScan flow cytometer.

[2] = system: promyelo/monocytic cell line U937; test: MTT cell proliferation, U937; details: for growth inhibition by free active principle: stated in the U937/HL-60 context
Procedure: MCF7, U937, HL-60 and HT29 cell lines were purchased from the American […] Culture Collection (Rockville, […].). MCF7 cells were grown in DMEM/F12 supplemented with 5% FBS, while U937 and HL-60 were grown in RPMI-1640 supplemented with 10% (v/v) foetal bovine serum.
Approximately 1000 cells (MCF7 and HT29) and 500 cells (U937 and HL-60) per well were used in 96-well plates and were treated as indicated in the examples. At the end of the experiment, the anti-proliferative effect was measured with 3-(4,5-dimethylthiazol-2-yl)-2,5-diphenyltetrazolium bromide (MTT). The blank value, corresponding to wells containing all the components but cells, was subtracted from the absorbance values obtained.

U937 cells = test: Expression of membrane antigens by flow cytometry (FACS), U937; details: U937, 3 days; mixed ester 0.1 mg/ml, butyric acid 0.2 mM, retinoic acid 10^−5M
Procedure: Expression of CD44, CD11a, CD11b, CD18 antigens was measured with specific murine monoclonal antibodies and secondary anti-mouse antibodies conjugated to FITC. After immunofluorescence, cells were incubated in a solution containing propidium iodide (PI) (5 mg/ml), Rnase (10 kU/ml), and Nonidet P40 (0.005%). The fluorescence relative to PI was measured using a FACScan flow cytometer (Becton Dickinson) equipped with an argon laser at 488 nm excitation wavelength and a 610 nm filter. The fluorescence signal was collected in linear and logaritmic modes. Data were evaluated using the LYSIS II software.
To check whether the block of cell growth was accompanied by activation of differentiation, the selected experimental model consists of the U937 promyelo/monocytic cell line, in which the effect of mixed esters on a series of myelocyte/macrophage specific differentiation markers (CD11a, CD11b and CD18) has been studied. The resulting effect has been directly compared with that of the two active principles. […] The results have been compared with those obtained with butyric and retinoic acids at the same concentrations as in the mixed ester (respectively 0.2 mM and […]). Since the time of treatment was reduced to 3 days in these experiments, the effects on growth and cell cycle were also measured.
In table 2 are indicated the percentages of expression measured by FACS of some membrane antigens in U937 cells treated with the esters of the invention and with the two non-esterified active principles. For each treatment the control has been repeated and is then indicated by the respective superscript.
The evaluation was performed by flow cytometry after that the promyelo/monocytic U937 cell line was treated for 3 days with mixed ester at 0.1 mg/ml concentration, butyric acid at 0.2 mM concentration or retinoic acid at 10^−5M concentration. Human lymphocytes were used as negative control for the expression of the antigen under examination.

Row | Structure (SMILES) | cells blocked in G0/1 (Go) phase [1] | cells in S phase [1] | growth inhibition by free active principle ([2]; BA 2 mM) | anti-proliferative effect and cell cycle block ([2]; U937, 3 days, BA 0.2 mM, RA 10^−5 M) | CD11a expression (U937 cells) | CD11b expression (U937 cells) | CD18 expression (U937 cells) | CD44 expression (U937 cells) | growth inhibition by free active principle ([2]; RA 10^−4 M)
1 | CCCC(=O)O [butyric acid, Butyric Acid] | 44% | 45% | ~100% | totally ineffective | 76% | 17% | 82% | 91% | –
2 | CC1=C(/C=C/C(C)=C/C=C/C(C)=C/C(=O)O)C(C)(C)CCC1 [retinoic acid, Retinoic acid] | 94% | 2% | – | – | 91% | 28% | 83% | 97% | ~100%
